Results reported in patent US20240174637A1, “DEGRADERS OF GRK2 AND USES THEREOF” (Sonata Therapeutics, Inc., priority 2021, published 2024).
Read-outs that look alike come from different tables or passages of the source.

How the values were obtained:
[1] = test system: PAXF1657 EV; experiment: 7-day cellular proliferation assay (CellTiter-Glo), PAXF1657 EV; format: cell-based
Summary of the method: (§1)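 PAXF1657 pancreatic cancer cells (GRK2-overexpressing vs empty vector; CRISPR GRK2 knockout vs non-targeting control) were seeded at 500 cells/well in RPMI1640/10% FBS, then given a 10-point series, 30 μM-0.0002 μM in 0.3% DMSO. Medium and compound were refreshed after 3 days; CellTiter-Glo luminescence was read at day 7.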

[2] = test system: PAXF1657 KO Clone #4; experiment: 7-day cellular proliferation assay (CellTiter-Glo), PAXF1657 KO Clone #4; format: cell-based
Summary of the method: as §1

[3] = target: T1, GRK2 (Homo sapiens, UniProt P25098); experiment: GRK2 Degradation Assay and Western Blot in PAXF1657 cells; format: cell-based; parameters: endogenous in cells; host or cells: PAXF1657
T1 sequence (P25098 1-689): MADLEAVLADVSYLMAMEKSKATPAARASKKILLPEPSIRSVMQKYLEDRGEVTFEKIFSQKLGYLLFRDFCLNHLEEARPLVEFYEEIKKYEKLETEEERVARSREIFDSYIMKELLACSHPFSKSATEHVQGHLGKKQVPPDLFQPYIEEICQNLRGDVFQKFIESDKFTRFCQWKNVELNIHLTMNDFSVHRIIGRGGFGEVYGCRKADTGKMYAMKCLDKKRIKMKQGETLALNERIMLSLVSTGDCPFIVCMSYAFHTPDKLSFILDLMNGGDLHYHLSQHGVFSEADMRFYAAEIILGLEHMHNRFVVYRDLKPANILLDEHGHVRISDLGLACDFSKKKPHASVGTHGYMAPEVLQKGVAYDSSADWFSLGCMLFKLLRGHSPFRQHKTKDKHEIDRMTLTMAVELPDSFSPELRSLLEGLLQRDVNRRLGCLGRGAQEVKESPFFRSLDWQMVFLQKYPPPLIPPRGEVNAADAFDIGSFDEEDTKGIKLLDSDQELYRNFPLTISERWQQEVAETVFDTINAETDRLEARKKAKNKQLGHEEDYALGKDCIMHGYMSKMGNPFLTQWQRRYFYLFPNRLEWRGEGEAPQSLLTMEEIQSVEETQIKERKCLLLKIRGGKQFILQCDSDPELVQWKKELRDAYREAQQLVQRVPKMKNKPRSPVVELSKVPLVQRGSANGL
Summary of the method: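 PAXF1657 cells grown to 70% confluency, then treated with compounds at 0–10 μM for 6 to 24 h at 37 °C. Lysates in PBS with 1% NP40 run on SDS-PAGE. GRK2 protein detected by western blot with β-actin as loading reference, using ECL chemiluminescence.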

[4] = target: T1, GRK2; experiment: GRK2 Inhibition Assay (TR-FRET, Example 1); format: biochemical
Procedure: Assay: GRK2 enzyme (1 nM final concentration) was diluted in 25 mM HEPES, 10 mM MgCl2, 2 mM DTT, 0.01% Tween-20, and 1 mM EGTA. Then the GRK2 mixture was added into ProxiPlate-384 white plate and pre-incubated for 30 min with test compounds at room temperature. ATP (7 μM final concentration) and Ulight TopoIIα (50 nM final concentration) were added into the assay plate to initiate the reaction and the mixture was incubated at room temperature for 90 min. Then, Eu anti-TopoIIα (0.12 nM final concentration), BSA (0.01% final concentration), and EDTA (11 mM final concentration) in LANCE assay buffer were added into each well. After 60 min incubation time at room temperature, TR-FRET signal was measured by EnVision plate reader.

[5] = proliferation, read-out: GeoMean IC50 (UM) PAXF1657 EV
[6] = proliferation, read-out: GeoMean IC50 (uM) PAXF1657 KO Clone #4
[7] = Conc 0.3 uM, read-out: Degradation Assay - 3 point: Degradation (%)
[8] = Conc 1 uM, read-out: Degradation Assay - 3 point: Degradation (%)
[9] = Conc 3 uM, read-out: Degradation Assay - 3 point: Degradation (%)
[10] = Table 4, Example 1 assay, read-out: Enzymatic GRK2 IC50: Av IC50 GRK2
[11] = 168 h, 7-day, read-out: 7-day proliferation assay: IC50 GeoMean (uM) [Cell Line: PAXF1657 EV]
[12] = 168 h, 7-day, read-out: 7-day proliferation assay: IC50 GeoMean (uM) [Cell Line: PAXF1657 KO Clone #4]
[13] = 1 uM, PAXF1657 EV, 24 hrs, read-out: % GRK2 degradation at 1 uM in PAXF1657 EV (24 hrs)
[14] = 3 uM, PAXF1657 EV, 24 hrs, read-out: % GRK2 degradation at 3 uM in PAXF1657 EV (24 hrs)
[15] = TR-FRET, 7 μM ATP, read-out: Enzymatic GRK2 Assay: IC50 (nM) (Example 1)
[16] = 0.3 uM, PAXF1657 EV, 24 hrs, read-out: % GRK2 degradation at 0.3 uM in PAXF1657 EV (24 hrs)

SMILES | IC50 [1, 5] [µM] | IC50 [2, 6] [µM] | inhibition at 0.3 µM [3, 7] [%] | inhibition at 1 µM [3, 8] [%] | inhibition at 3 µM [3, 9] [%] | IC50 [4, 10] [nM] | IC50 [1, 11] [µM] | IC50 [2, 12] [µM] | inhibition at 1 µM [3, 13] [%] | inhibition at 3 µM [3, 14] [%] | IC50 [4, 15] [nM] | inhibition at 0.3 µM [3, 16] [%] | DC50 ([3]; PAXF1657, 24 h, read-out: Degradation Assay - Full Dose Response: IC50 (uM) [cell line: PAXF1657, time point: 24 h]) [µM]
C[C@@H](NC(=O)c1cccc(NCc2nnc(-c3ccncn3)n2C)c1)c1cccc(OCCCCCOCCCOCC(=O)N2CCN(c3ccc4c(c3)CN(C3CCC(=O)NC3=O)C4=O)CC2)c1 (stereo partly drawn) [Compound D181, N-((1R)-1-(3-((5-(3-(2-(4-(2-(2,6-dioxopiperidin-3-yl)-1-oxoisoindolin-5-yl)piperazin-1-yl)-2-oxoethoxy)propoxy)pentyl)oxy)phenyl)ethyl)-3-(((4-methyl-5-(pyrimidin-4-yl)-4H-1,2,4-triazol-3-yl)methyl)amino)benzamide] | 0.58 | > 30 | 55 | 78 | 86 | 11.8 | – | – | – | – | – | – | –
CN[C@@H](C)C(=O)N[C@H](C(=O)N1CCC[C@H]1c1nc(C(=O)c2cccc(OCc3cn(CCCCCCOc4cccc(CNC(=O)c5cccc(NCc6nnc(-c7ccncn7)n6C)c5)c4)nn3)c2)cs1)C1CCCCC1 [Compound D102, N-(3-((6-(4-((3-(2-((S)-1-((S)-2-cyclohexyl-2-((S)-2-(methylamino)propanamido)acetyl)pyrrolidin-2-yl)thiazole-4-carbonyl)phenoxy)methyl)-1H-1,2,3-triazol-1-yl)hexyl)oxy)benzyl)-3-(((4-methyl-5-(pyrimidin-4-yl)-4H-1,2,4-triazol-3-yl)methyl)amino)benzamide] | – | – | – | – | – | – | < 1 | 1 to 10 | 70 | 73 | < 100 | – | –
C[C@@H](NC(=O)c1cccc(NCc2nnc(-c3ccncn3)n2C)c1)c1cccc(OCCCCCCOCCOCCOCCCCCC(=O)N2CCN(c3ccc4c(c3)CN(C3CCC(=O)NC3=O)C4=O)CC2)c1 (stereo partly drawn) [Compound D191, N-((1R)-1-(3-((6-(2-(2-((6-(4-(2-(2,6-dioxopiperidin-3-yl)-1-oxoisoindolin-5-yl)piperazin-1-yl)-6-oxohexyl)oxy)ethoxy)ethoxy)hexyl)oxy)phenyl)ethyl)-3-(((4-methyl-5-(pyrimidin-4-yl)-4H-1,2,4-triazol-3-yl)methyl)amino)benzamide] | 0.32 | > 30 | 36.7 | 78.1 | 86 | 24.9 | – | – | – | – | – | – | –
C[C@@H](NC(=O)c1cccc(NCc2nnc(-c3ccncn3)n2C)c1)c1ccc(OCCCCCCOCCOCCOCCCC(=O)Nc2cccc3c2CN(C2CCC(=O)NC2=O)C3=O)cc1 (stereo partly drawn) [Compound D127, N-((1R)-1-(4-(6-(2-(2-(4-(2-(2,6-dioxopiperidin-3-yl)-1-oxoisoindolin-4-ylamino)-4-oxobutoxy)ethoxy)ethoxy)hexyloxy)phenyl)ethyl)-3-((4-methyl-5-(pyrimidin-4-yl)-4H-1,2,4-triazol-3-yl)methylamino)benzamide] | 0.1 | > 30 | 81.4 | 82.1 | 78.5 | 2.2 | – | – | – | – | – | – | –
Cc1ncsc1-c1ccc(CNC(=O)[C@@H]2C[C@@H](O)CN2C(=O)[C@@H](NC(=O)CCCCCOCCOCCOCCCCCCOc2cccc([C@H](C)NC(=O)c3cccc(NCc4nnc(-c5ccncn5)n4C)c3)c2)C(C)(C)C)cc1 [Compound D153] | 0.34 | 6.82 | 10 | 12 | 18 | 125 | – | – | – | – | – | – | –
C[C@@H](NC(=O)c1cccc(NCc2nnc(-c3ccncn3)n2C)c1)c1cccc(OCCCCCCOCCOCCOCCCC(=O)Nc2cccc3c2CN(C2CCC(=O)NC2=O)C3=O)c1 (stereo partly drawn) [Compound D163, N-((1R)-1-(3-(6-(2-(2-(4-(2-(2,6-dioxopiperidin-3-yl)-1-oxoisoindolin-4-ylamino)-4-oxobutoxy)ethoxy)ethoxy)hexyloxy)phenyl)ethyl)-3-((4-methyl-5-(pyrimidin-4-yl)-4H-1,2,4-triazol-3-yl)methylamino)benzamide] | 0.37 | > 30 | 74.4 | 81.5 | 89.6 | 16.6 | – | – | – | – | – | – | –
Cc1ncsc1-c1ccc(CNC(=O)[C@@H]2C[C@@H](O)CN2C(=O)[C@@H](NC(=O)CCCCc2cn(CCCCCOc3cccc(CNC(=O)c4cccc(NCc5nnc(-c6ccncn6)n5C)c4)c3)nn2)C(C)(C)C)cc1 [Compound D80] | – | – | – | – | – | – | > 10 | > 10 | 0 | 23 | < 100 | 6 | –
C[C@@H](NC(=O)c1cccc(NCc2nnc(-c3ccncn3)n2C)c1)c1cccc(OCCCCCCOCCOCC(=O)N2CCN(c3cc4c(cc3F)C(=O)N(C3CCC(=O)NC3=O)C4=O)CC2)c1 (stereo partly drawn) [Compound D139, N-((1R)-1-(3-(6-(2-(2-(4-(2-(2,6-dioxopiperidin-3-yl)-6-fluoro-1,3-dioxoisoindolin-5-yl)piperazin-1-yl)-2-oxoethoxy)ethoxy)hexyloxy)phenyl)ethyl)-3-((4-methyl-5-(pyrimidin-4-yl)-4H-1,2,4-triazol-3-yl)methylamino)benzamide] | 0.2 | 26.6 | 86 | 92 | 95 | 13.6 | – | – | – | – | – | – | 0.23
C[C@@H](NC(=O)c1cccc(NCc2nnc(-c3ccncn3)n2C)c1)c1cccc(OCCCCCCOCCOCCOCCCCCC(=O)Nc2cccc3c2CN(C2CCC(=O)NC2=O)C3=O)c1 (stereo partly drawn) [Compound D57, N-((1R)-1-(3-((6-(2-(2-((6-((2-(2,6-dioxopiperidin-3-yl)-1-oxoisoindolin-4-yl)amino)-6-oxohexyl)oxy)ethoxy)ethoxy)hexyl)oxy)phenyl)ethyl)-3-(((4-methyl-5-(pyrimidin-4-yl)-4H-1,2,4-triazol-3-yl)methyl)amino)benzamide] | – | – | – | – | – | – | > 10 | > 10 | 82 | 85 | < 100 | 70 | –
C[C@@H](NC(=O)c1cccc(NCc2nnc(-c3ccncn3)n2C)c1)c1cccc(C(=O)N2CC(N3CCN(c4ccc5c(c4)CN(C4CCC(=O)NC4=O)C5=O)CC3)C2)c1 (stereo partly drawn) [Compound D172] | 14.1 | > 30 | -7.47 | -8.22 | -15.9 | 104 | – | – | – | – | – | – | –
